Measured values taken from article PMC4937820, “Identification of selective inhibitors of RET and comparison with current clinical candidates through development and validation of a robust screening cascade” (F1000Research, 2016).

How the values were obtained:
[1] = system: MZ-CRC-1 (RET (M918T)) versus HEK293 cells; assay: Cell POP (proof of principle) proliferation assay, MZ-CRC-1 vs HEK293 control; format: cell-based, human; conditions: IC50 HEK293 control cells divided by IC50 MZ-CRC-1 cells
RET [2] = conditions: MZ-CRC-1 cells; confirmed in-house (data not shown); read-out: IC 50 in MZ-CRC-1 cells (RET); cited from earlier work
RET-positive patients = conditions: preliminary report of phase II trial; cited from earlier work
RET [3] = assay: Western blot of pRET, total RET and GAPDH in MZ-CRC-1 cells; format: cell-based; conditions: 1µM, 24 hours
Experimental: Following compound treatment (1µM, 24 hours), MZ-CRC-1 cell lysates (50 μg) were subjected to polyacrylamide gel electrophoresis (PAGE) and semi-dry transfer to nitrocellulose membrane using the Bio-Rad Trans-Blot Turbo system and Trans-Blot Turbo transfer packs. Membranes were blocked overnight at 4°C in phosphate-buffered saline containing 0.1% Tween (PBST; Sigma) and 5% non-fat dried milk powder (marvel). Primary and secondary antibody incubations were performed at room temperature in PBST/0.5% marvel with 3× PBST washes post incubation. pRET (Santa Cruz #SC-20252-R) and total RET (Santa Cruz #sc-167) antibodies were used at 1:500 dilutions; GAPDH (Cell Signaling Technology #2118L) and secondary goat anti rabbit IgG HRP-linked (Cell Signaling Technology #7074) antibodies were used at 1:1000. Proteins were visualized by chemiluminescent detection of peroxidase activity using SuperSignal reagent (Pierce), and images were captured using the Syngene imager and GeneSys software.

RET [4] = molecular target: RET (Homo sapiens, UniProt P07949, M918T); assay: RET cellular POM (proof of mechanism) assay; format: cell-based
RET (Homo sapiens, UniProt P07949, M918T), sequence (P07949 29-1114 M918T): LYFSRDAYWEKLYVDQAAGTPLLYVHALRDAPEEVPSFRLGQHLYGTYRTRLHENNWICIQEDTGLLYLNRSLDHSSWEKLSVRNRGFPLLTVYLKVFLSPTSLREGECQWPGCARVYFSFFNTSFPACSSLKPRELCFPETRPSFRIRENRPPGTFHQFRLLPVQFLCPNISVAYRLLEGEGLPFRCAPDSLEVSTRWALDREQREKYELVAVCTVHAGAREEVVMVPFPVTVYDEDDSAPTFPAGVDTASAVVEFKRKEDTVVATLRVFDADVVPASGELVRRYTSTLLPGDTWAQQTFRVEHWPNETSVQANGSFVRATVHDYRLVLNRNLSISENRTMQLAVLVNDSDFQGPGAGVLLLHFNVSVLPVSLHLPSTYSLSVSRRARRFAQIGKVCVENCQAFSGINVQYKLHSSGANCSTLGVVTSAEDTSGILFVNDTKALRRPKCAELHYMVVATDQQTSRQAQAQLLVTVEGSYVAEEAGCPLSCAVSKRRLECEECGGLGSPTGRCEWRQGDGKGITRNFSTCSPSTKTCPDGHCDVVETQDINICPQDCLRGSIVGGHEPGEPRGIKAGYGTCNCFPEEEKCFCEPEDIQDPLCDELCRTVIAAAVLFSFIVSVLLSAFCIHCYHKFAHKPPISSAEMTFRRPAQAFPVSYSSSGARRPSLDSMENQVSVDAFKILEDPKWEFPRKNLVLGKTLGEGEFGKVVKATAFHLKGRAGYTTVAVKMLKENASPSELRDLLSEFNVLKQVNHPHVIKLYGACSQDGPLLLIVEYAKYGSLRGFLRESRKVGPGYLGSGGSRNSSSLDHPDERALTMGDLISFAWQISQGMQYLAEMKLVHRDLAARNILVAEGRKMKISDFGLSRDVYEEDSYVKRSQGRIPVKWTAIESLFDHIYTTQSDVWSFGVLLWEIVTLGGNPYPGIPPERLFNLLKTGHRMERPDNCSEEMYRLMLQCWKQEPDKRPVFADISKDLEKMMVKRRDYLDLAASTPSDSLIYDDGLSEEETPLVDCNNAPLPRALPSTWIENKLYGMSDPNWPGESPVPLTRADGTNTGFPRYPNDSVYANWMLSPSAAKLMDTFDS

SMILES	Toxicity Margin [1]	further results
CCc1cc2c(cc1N1CCC(N3CCOCC3)CC1)C(C)(C)c1[nH]c3cc(C#N)ccc3c1C2=O [Alectinib]	^1>35×	IC50 (RET [2]): […]
COc1cc2nccc(Oc3ccc(NC(=O)C4(C(=O)Nc5ccc(F)cc5)CC4)cc3)c2cc1OC [Cabozantinib]	–	Clinical response (RET-positive patients): partial responses in two of three RET-positive patients
CC(C)c1cc(-c2n[nH]c(=O)n2-c2ccc3c(ccn3C)c2)c(O)cc1O [Ganetespib]	0.7×	Effect on levels of active RET (RET [3]): reduce levels of active RET, through protein degradation; Selectivity vs. KDR (cell) (RET [4]; cellular, KDR IC50 divided by RET IC50): 0.36×; IC50 (RET [4]; geometric mean of at least four independent measurements, read-out: RET Cell IC 50): 3.9 nM
COc1cc2nccc(Oc3ccc(NC(=O)NC4CC4)c(Cl)c3)c2cc1C(N)=O [Lenvatinib]	141×	–
CNC(=O)c1cc(Oc2ccc(NC(=O)Nc3ccc(Cl)c(C(F)(F)F)c3)cc2)ccn1 [Sorafenib]	13×	–
CCN(CC)CCNC(=O)c1c(C)[nH]c(/C=C2\C(=O)Nc3ccc(F)cc32)c1C [Sunitinib]	28×	–
